Experiment [1] has as its system CCRF-CEM cells. The experiment in a line: CCRF-CEM cell assay: potentiation of the cell growth inhibitory activity (cytotoxicity) of 2'-deoxyguanosine (d-Guo). In kind it is cell-based. As to conditions: Homo sapiens, d-Guo 10 μM, 72 hours. How it is done:
The selective suppression of spontaneous T-cell proliferation in vitro is measured by the potentiation of the cell growth inhibitory activity (cytotoxicity) of 2'-deoxyguanosine (d-Guo) by the compounds of the invention, determined as follows: Human CCRF-CEM cells are grown in RPMI-1640 medium. To suspension cultures of these cells, d-Guo at a fixed concentration (10 μM) and the candidate PNP inhibitor at varied concentrations are added and the number of cells are determined in a Coulter counter 24, 48, and 72 hours thereafter. […] This method is similar to that previously used to determine the effectiveness of PNP inhibitors on potentiation of the toxicity of d-Guo. [See D. A. Shewach et al., Cancer Res., 46, 519 (1986); J. C. Sircar et al., Agents and Actions, 21, 253 (1987), also Methods in Pharmacology, D. M. Paten, ed. 1985, pp. 147-162].

The target in experiment [2] is T1, purine nucleoside phosphorylase (PNP) (Bos taurus, UniProt P55859).
T1 construct: Calf spleen PNP is used as the enzyme source; from tissue; host or cells: calf spleen
T1 sequence (P55859 1-289): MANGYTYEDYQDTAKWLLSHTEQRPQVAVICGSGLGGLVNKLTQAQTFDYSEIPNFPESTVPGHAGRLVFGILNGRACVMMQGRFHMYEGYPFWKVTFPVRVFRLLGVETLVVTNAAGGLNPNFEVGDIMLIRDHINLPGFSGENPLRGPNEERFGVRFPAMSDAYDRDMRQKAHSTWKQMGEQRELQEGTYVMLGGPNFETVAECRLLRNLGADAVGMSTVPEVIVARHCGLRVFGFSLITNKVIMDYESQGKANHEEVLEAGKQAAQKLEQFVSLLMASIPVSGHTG
Description: PNP inhibition in vitro, enzymic determination of inorganic phosphate (PNP/xanthine oxidase), calf spleen PNP. In kind it is biochemical. As to conditions: 1 mM phosphate concentration; calf spleen PNP; substrate inosine. As for the experimental part: PNP inhibition can be measured by measuring the formation of [^14- C]-[…] [Biomedicine, 33, 39 (1980)] using calf spleen as the enzyme source and 1 or 50 mM phosphate. Results are expressed as IC50 values, corresponding to the concentration of compound required to achieve a 50% reduction of the formation of hypoxanthine.
PNP inhibition can also be determined in vitro as follows: An enzymic method for the determination of inorganic phosphate (see Chem. Pharm. Bull., 1981, 29:1451-5), based on the principle of forming hydrogen peroxide with purine nucleoside phosphorylase (PNP) and xanthine oxidase, is used to calorimetrically measure the degree of linkage between enzyme and substrate (inosine). Calf spleen PNP is used as the enzyme source. The IC50 values for the compounds studied are determined graphically at two phosphate concentrations (1 and 50 mM) from a plot of percent inhibition versus compound concentration.

Experiment [3] has as its system transplant rejection. The experiment in a line: Protection against transplant rejection, mouse tail skin transplantation procedure. In kind it is in vivo, mouse (C57BL/10-SnJ and B10.BR/SgSnJ). An excerpt: Protection against transplant rejection can be determined in a mouse tail skin transplantation procedure.
Mice are anesthetized with tribromoethanol i.p. injection according to the method of Papaioannou and Fox (Lab. Animal Science 1993;43:189-92). The mouse tail skin transplant rejection model is a modification of that described by Baily and Usama, (Transpl. Bull. 1960;7:424-5). Four skin grafts per mouse are exchanged between strains [C57BL/10-SnJ (H-2K^b) and B10.BR/SgSnJ (H-2K^k)] at surgery (d0). Fitted skin grafts are made with a scalpel, and tail graft sites are protected with tubing for 2 days following surgery. Mouse tails are evaluated at day 7 for missing grafts. Only those graft sites that have patent grafts at day 7 are evaluated at later scoring intervals. Grafts are scored numerically for signs of rejection at ~weekly scoring intervals starting day 14. Dose-group mean graft scores are compared statistically.

The test system of experiment [4] is purine nucleoside phosphorylase (PNP). Description: PNP inhibition in vivo: plasma inosine level in mice after oral dose. The following applies: at a dose of e.g. 10 mg/Kg p.o. How it is done:
Briefly, mice are treated orally with the PNP inhibitor suspended in fortified cornstarch (3% cornstarch suspension in water with 0.33% Tween 80 and 5% PEG 400) at a final volume of 10 ml/kg. One or more hours after a single oral dose of compound, the mice are bled by cardiac puncture into 25 U/ml heparin to obtain plasma. The samples are analyzed for both inosine and drug levels by a gradient reverse-phase high performance liquid chromatography (HPLC) method (see Anal Chem, 1977, 49:2237-41). Quantitation is performed using an internal standard method with 2',3'-dideoxyinosine (DDI) as the internal standard.

The subject of experiment [5] is collagen II induced arthritis. The experiment in a line: Antiarthritic activity, collagen II induced arthritis in mice model. In kind it is in vivo, DBA/1LacJ female mice. As to conditions: 20 mg/Kg/day; orally once daily, day 1 through day 42. As for the experimental part:
The antiarthritic activity can be determined in the collagen II induced arthritis in mice model. DBA/1LacJ female mice, 6-8 weeks old, are immunized with 100 μg of chicken type II collagen emulsified in Freund's complete adjuvant (FCA) by injecting at the base of the tail on day 0. On day 17 after collagen injection, the immune response to type II collagen is boosted with a subcutaneous injection of 200 μg LPS solubilized in PBS. Paws are examined on days 17, 21, 24, 28, 31, 35, and 42 and scored for the symptoms of arthritis based on criteria such as inflammation, swelling and ankylosis. Compounds are suspended in corn starch vehicle and administered orally to mice once daily beginning on day 1 and continuing through day 42.

SMILES strings stand for the structures.

What is called IC50 is the concentration needed to halve the response being measured. As to `Nc1nc2c([C@@H](CO)c3ccccc3F)c[nH]c2c(=O)[nH]1` [Example 1, 2-amino-7-[1-(2-fluorophenyl)-2(R)-hydroxyethyl]-3,5-dihydro-4H-pyrrolo[3,2-d]pyrimidin-4-one], the IC50 in experiment [1] was roughly 0.075 µM; in experiment [2], roughly 0.01 µM. Besides, the “protection against transplant rejection” value in experiment [3] (50 mg/Kg/day, mouse) is given as “effective in protecting against transplant rejection”. Besides, the “transplant rejection model, combination with cyclosporin” value in experiment [3] (combination of compound and cyclosporin vs either alone) is recorded as “superior to either cyclosporin or the PNP inhibitor alone”. Besides, in experiment [4], the “plasma level of inosine” value is listed as “significant increase in the plasma level of inosine”. Besides, the antiarthritic activity result in experiment [5] is reported as “effective”.

Regarding `Nc1nc2c([C@@H](CO)c3ccccc3)c[nH]c2c(=O)[nH]1` [Example 3f, 2-Amino-7-(2(S)-hydroxy-1-phenylethyl)-3,5-dihydro-4H-pyrrolo[3,2-d]-pyrimidin-4-one], the IC50 in experiment [1] was roughly 0.1 µM; in experiment [2], roughly 0.01 µM. Moreover, in experiment [4], the “plasma level of inosine” value is “significant increase in the plasma level of inosine”.
